Test results published in ChEMBL document CHEMBL1142695, “Discovery of functionally selective 7,8,9,10-tetrahydro-7,10-ethano-1,2,4-triazolo[3,4-a]phthalazines as GABA A receptor agonists at the alpha3 subunit” (J Med Chem, 2005).

Columns and labels:
Assay type in all cases: cell-based
[1] = target: T1, GABA-A receptor; alpha-5/beta-3/gamma-2 (Homo sapiens, UniProt P18507+P28472+P31644); assay: Inhibition of [3H]Ro-151788 binding to recombinant human gamma-aminobutyric-acid A receptor alpha-5-beta-3-gamma-2 subtype expressed in L (tk-) cells
T1 sequence (P18507 whole entry): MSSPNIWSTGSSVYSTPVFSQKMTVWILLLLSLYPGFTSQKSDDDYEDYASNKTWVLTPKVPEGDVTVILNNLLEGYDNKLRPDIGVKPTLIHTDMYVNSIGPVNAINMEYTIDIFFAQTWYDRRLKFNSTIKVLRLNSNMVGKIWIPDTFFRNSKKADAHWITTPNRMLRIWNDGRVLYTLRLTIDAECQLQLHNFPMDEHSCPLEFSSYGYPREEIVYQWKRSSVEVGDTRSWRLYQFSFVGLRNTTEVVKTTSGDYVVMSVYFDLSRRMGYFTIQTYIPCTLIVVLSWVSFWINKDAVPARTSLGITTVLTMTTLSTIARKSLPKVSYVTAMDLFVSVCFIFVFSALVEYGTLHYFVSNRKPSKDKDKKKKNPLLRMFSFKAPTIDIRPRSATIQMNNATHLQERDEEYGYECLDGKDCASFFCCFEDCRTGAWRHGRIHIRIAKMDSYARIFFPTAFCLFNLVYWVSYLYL
T1 sequence (P28472 whole entry): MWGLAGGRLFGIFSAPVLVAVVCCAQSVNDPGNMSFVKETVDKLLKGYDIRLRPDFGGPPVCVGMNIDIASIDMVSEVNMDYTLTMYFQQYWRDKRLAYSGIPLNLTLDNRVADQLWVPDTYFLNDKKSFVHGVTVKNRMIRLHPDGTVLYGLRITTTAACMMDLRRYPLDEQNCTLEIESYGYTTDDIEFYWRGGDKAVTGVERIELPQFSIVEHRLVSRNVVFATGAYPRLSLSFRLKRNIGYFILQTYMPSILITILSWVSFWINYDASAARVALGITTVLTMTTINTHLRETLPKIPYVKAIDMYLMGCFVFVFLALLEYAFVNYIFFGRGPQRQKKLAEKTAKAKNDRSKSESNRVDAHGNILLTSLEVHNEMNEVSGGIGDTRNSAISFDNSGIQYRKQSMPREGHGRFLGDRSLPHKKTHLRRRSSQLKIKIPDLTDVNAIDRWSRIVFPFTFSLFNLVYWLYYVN
T1 sequence (P31644 whole entry): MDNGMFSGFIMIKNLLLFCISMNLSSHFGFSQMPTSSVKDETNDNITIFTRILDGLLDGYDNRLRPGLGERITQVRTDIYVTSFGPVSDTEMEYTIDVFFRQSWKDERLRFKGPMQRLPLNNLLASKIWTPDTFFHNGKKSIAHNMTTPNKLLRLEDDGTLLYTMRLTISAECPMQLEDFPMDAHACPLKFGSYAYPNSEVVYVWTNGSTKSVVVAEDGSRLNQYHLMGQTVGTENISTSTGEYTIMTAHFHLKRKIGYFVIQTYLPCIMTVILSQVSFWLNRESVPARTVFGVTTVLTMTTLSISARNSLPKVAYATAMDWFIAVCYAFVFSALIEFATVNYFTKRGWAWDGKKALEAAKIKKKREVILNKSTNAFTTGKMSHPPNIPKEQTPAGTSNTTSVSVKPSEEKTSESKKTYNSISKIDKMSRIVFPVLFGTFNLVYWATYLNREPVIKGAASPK

[2] = target: T2, GABA-A receptor; alpha-3/beta-3/gamma-2 (Homo sapiens, UniProt P18507+P28472+P34903); assay: Inhibition of [3H]Ro-151788 binding to recombinant human gamma-aminobutyric-acid A receptor alpha-3-beta-3-gamma-2 subtype expressed in L (tk-) cells
T2 sequence (P18507 whole entry): T1 sequence (P18507 whole entry)
T2 sequence (P28472 whole entry): T1 sequence (P28472 whole entry)
T2 sequence (P34903 whole entry): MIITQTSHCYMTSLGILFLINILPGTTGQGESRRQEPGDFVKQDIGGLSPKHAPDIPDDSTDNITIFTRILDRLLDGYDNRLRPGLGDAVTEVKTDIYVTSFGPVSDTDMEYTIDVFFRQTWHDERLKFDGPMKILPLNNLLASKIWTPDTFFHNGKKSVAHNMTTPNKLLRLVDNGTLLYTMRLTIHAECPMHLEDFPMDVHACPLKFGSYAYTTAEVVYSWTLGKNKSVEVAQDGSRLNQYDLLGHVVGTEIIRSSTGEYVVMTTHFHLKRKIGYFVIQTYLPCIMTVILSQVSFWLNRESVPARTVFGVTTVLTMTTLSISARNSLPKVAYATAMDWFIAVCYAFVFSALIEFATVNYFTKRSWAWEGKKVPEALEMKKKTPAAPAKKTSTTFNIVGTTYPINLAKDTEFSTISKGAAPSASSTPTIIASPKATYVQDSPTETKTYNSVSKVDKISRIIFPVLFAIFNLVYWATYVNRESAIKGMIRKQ

[3] = target: T3, GABA-A receptor; alpha-1/beta-3/gamma-2 (Homo sapiens, UniProt P14867+P18507+P28472); assay: Inhibition of [3H]Ro-151788 binding to recombinant human gamma-aminobutyric-acid A receptor alpha-1-beta-3-gamma-2 subtype expressed in L (tk-) cells
T3 sequence (P14867 whole entry): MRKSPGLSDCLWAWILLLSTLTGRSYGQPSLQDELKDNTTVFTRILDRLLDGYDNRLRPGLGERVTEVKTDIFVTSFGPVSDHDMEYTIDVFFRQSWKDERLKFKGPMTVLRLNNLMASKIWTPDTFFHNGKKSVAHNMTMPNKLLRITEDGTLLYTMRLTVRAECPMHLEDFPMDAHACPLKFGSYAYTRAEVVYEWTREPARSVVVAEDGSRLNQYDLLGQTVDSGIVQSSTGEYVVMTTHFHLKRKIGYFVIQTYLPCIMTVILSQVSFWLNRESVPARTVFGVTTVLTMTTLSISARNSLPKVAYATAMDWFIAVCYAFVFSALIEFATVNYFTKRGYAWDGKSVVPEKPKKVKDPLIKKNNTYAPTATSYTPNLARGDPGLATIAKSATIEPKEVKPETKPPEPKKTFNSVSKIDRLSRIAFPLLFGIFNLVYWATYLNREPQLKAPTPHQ
T3 sequence (P18507 whole entry): T1 sequence (P18507 whole entry)
T3 sequence (P28472 whole entry): T1 sequence (P28472 whole entry)

[4] = target: T4, GABA-A receptor; alpha-2/beta-3/gamma-2 (Homo sapiens, UniProt P18507+P28472+P47869); assay: Inhibition of [3H]Ro-151788 binding to recombinant human gamma-aminobutyric acid A receptor alpha-2-beta-3-gamma-2 subtype expressed in L (tk-) cells
T4 sequence (P18507 whole entry): T1 sequence (P18507 whole entry)
T4 sequence (P28472 whole entry): T1 sequence (P28472 whole entry)
T4 sequence (P47869 whole entry): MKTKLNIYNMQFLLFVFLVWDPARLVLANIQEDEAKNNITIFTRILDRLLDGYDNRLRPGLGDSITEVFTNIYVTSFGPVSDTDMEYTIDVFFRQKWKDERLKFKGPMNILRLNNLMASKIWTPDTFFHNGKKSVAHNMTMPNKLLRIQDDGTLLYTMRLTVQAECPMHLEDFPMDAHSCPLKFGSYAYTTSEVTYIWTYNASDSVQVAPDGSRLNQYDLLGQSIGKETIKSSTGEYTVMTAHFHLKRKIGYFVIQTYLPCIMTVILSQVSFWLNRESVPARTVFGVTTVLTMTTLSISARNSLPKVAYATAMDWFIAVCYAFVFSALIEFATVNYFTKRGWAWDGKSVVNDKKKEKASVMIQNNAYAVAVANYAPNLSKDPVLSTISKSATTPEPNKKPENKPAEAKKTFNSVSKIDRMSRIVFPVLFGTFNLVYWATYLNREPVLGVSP

Row | Compound | Ki [1] | Ki [2] | Ki [3] | Ki [4]
1 | c1ccc(-c2nnc3c4c(c(OCc5nc6ccccc6s5)nn23)C2CCC4CC2)cc1 | 23 nM | 250 nM | > 1000 nM | > 1000 nM
2 | Clc1ccc(COc2nn3c(-c4ccccc4)nnc3c3c2C2CCC3CC2)nn1 | 1.3 nM | 23 nM | 73 nM | 42 nM
3 | Cc1cccc(-c2nnc3c4c(c(OCc5ccccn5)nn23)C2CCC4CC2)c1 | 17 nM | 140 nM | 570 nM | 210 nM
4 | FC(F)(F)Oc1ccc(COc2nn3c(-c4ccccc4)nnc3c3c2C2CCC3CC2)cc1 | > 500 nM | > 500 nM | > 500 nM | > 500 nM
5 | CN(C(=O)COc1nn2c(-c3ccccc3)nnc2c2c1C1CCC2CC1)c1ccccc1 | 7.4 nM | 41 nM | 21 nM | 72 nM
6 | c1ccc(COc2nn3c(-c4ccco4)nnc3c3c2C2CCC3CC2)nc1 | 5.3 nM | 53 nM | 270 nM | 110 nM
7 | CCO[n+]1ccccc1Oc1nn2c(-c3ccccc3)nnc2c2c1C1CCC2CC1 | 64 nM | 550 nM | > 1000 nM | 390 nM
8 | c1ccc(COc2nn3c(-c4ccccc4)nnc3c3c2C2CCC3CC2)cc1 | 110 nM | > 1000 nM | > 1000 nM | > 1000 nM
9 | O=C(Nc1ccccn1)c1nn2c(-c3ccccc3)nnc2c2c1C1CCC2CC1 | 40 nM | 170 nM | > 1000 nM | 290 nM
10 | CN1CCCCC1COc1nn2c(-c3ccccc3)nnc2c2c1C1CCC2CC1 (stereo unspecified) | > 1000 nM | > 1000 nM | > 1000 nM | > 1000 nM
11 | Cc1ccccc1-c1nnc2c3c(c(OCc4ccccn4)nn12)C1CCC3CC1 | 22 nM | 280 nM | > 1000 nM | 280 nM
12 | N#Cc1ccccc1COc1nn2c(-c3ccccc3)nnc2c2c1C1CCC2CC1 | 2.6 nM | 53 nM | 190 nM | 83 nM
13 | Cc1csc(COc2nn3c(-c4ccccc4)nnc3c3c2C2CCC3CC2)n1 | 2.9 nM | 30 nM | 140 nM | 40 nM
14 | c1ccc(-c2nnc3c4c(c(Oc5cccnc5)nn23)C2CCC4CC2)cc1 | > 500 nM | > 500 nM | > 500 nM | > 500 nM
15 | c1ccc(COc2nn3c(-c4ccncc4)nnc3c3c2C2CCC3CC2)nc1 | 20 nM | 150 nM | > 1000 nM | 320 nM
16 | OCc1ccc(COc2nn3c(-c4ccccc4)nnc3c3c2C2CCC3CC2)cc1 | 11 nM | 44 nM | 520 nM | 76 nM

Row | Compound | Ki [1] | Ki [2] | Ki [3] | Ki [4]
17 | c1ccc(-c2nnc3c4c(c(CNc5ccccn5)nn23)C2CCC4CC2)cc1 | > 1000 nM | > 1000 nM | > 1000 nM | > 1000 nM
18 | c1ccc(-c2nnc3c4c(c(OCc5ccsc5)nn23)C2CCC4CC2)cc1 | > 500 nM | > 500 nM | > 500 nM | > 500 nM
19 | Cc1scnc1COc1nn2c(-c3ccccc3)nnc2c2c1C1CCC2CC1 | 0.77 nM | 12 nM | 35 nM | 21 nM
20 | Cn1nnc(COc2nn3c(-c4ccccc4)nnc3c3c2C2CCC3CC2)n1 | 6.5 nM | 37 nM | 60 nM | 57 nM
21 | Cc1cc(COc2nn3c(-c4ccccc4)nnc3c3c2C2CCC3CC2)sn1 | 11 nM | 99 nM | 210 nM | 130 nM
22 | COc1ccccc1-c1nnc2c3c(c(OCc4ccccn4)nn12)C1CCC3CC1 | 170 nM | > 1000 nM | > 1000 nM | > 1000 nM
23 | O=C(COc1nn2c(-c3ccccc3)nnc2c2c1C1CCC2CC1)N1CCCC1 | 9 nM | 50 nM | 230 nM | 160 nM
24 | c1ccc(-c2nnc3c4c(c(OCc5cnc6ccccc6n5)nn23)C2CCC4CC2)cc1 | 3.9 nM | 26 nM | 82 nM | 34 nM
25 | c1ccc(-c2nnc3c4c(c(COc5ccccn5)nn23)C2CCC4CC2)cc1 | 58 nM | 120 nM | 440 nM | 230 nM
26 | Cc1cnc(COc2nn3c(-c4ccccc4)nnc3c3c2C2CCC3CC2)s1 | 2 nM | 24 nM | 100 nM | 28 nM
27 | Cc1conc1COc1nn2c(-c3ccccc3)nnc2c2c1C1CCC2CC1 | 2.7 nM | 18 nM | 80 nM | 35 nM
28 | CN1CCCC(COc2nn3c(-c4ccccc4)nnc3c3c2C2CCC3CC2)C1 (stereo unspecified) | 100 nM | 460 nM | 750 nM | 260 nM
29 | OCCCOc1nn2c(-c3ccccc3)nnc2c2c1C1CCC2CC1 | 42 nM | 170 nM | 650 nM | 310 nM
30 | c1ccc(-c2nnc3c4c(c(OCc5ncccc5OC5CCC5)nn23)C2CCC4CC2)cc1 | 4.2 nM | 38 nM | 32 nM | 43 nM
31 | Fc1ccc(-c2nnc3c4c(c(OCc5ccccn5)nn23)C2CCC4CC2)cc1 | 27 nM |  | 310 nM | 180 nM
32 | Cc1ccc(-c2nc3ccc(C)cn3c2CC(=O)N(C)C)cc1 [ZOLPIDEM] | > 3330 nM | 246 nM |  | 103 nM
